The source of these data is patent US20170105999A1, “METHOD FOR TREATING DRUG RESISTANT CANCER” (NATIONAL YANG MING UNIVERSITY, priority 2014, published 2017).

Series [1] concerns CL141. The series is described as follows: Cytotoxicity, sulforhodamine B (SRB) assay. It is filed as cell-based. The conditions noted are these: read-out: IC50 for prochlorperazine metabolites, CL141 parental cells. The protocol: (§1) Cells were plated in 96-well plates at a density of 2000 cells per well in triplicate. The cells were treated on the third day (to ensure proper plating efficiency and vitality) to indicated agents for 48 hrs. […] Cytotoxicity was assessed using the sulforhodamine B (SRB) assay (23). Briefly, the medium was discarded, and the adherent cells were fixed by 100 μl of cold 10% trichioroacetic acid (w/v) in each well for 1 h at 4° C. After fixation, cells were stained with 100 μl/well of 0.4% (w/v, in 1% acetic acid) SRB solution for 30 min at room temperature, and then washed 5 times with 1% acetic acid. After air-drying, 100 μl of 10 mM Tris base was added to each well and the absorbance was read at 530 nm. Cytotoxicity is expressed as the percent of cells in drug treated wells relative to number of cells in the solvent only control (set to 100%). Each experiment was performed independently at least 2 times in triplicate and cytotoxicity is given as means ±SD.
(§2) A549, A549-ON, CL97, CL141, HCC827, and H441 were lung adenocarcinoma cell lines. CL152, H2170, and H226 were squamous cell carcinoma cell lines. Cell viability was determined by SRB assay. […] To determine whether side population (SP) cells, which represent a cell population with CSC characteristics, exist in NSCLC cell lines, we stained the cells with the fluorescent dye, Hoechst 33342, and analyzed the cells with flow cytometry.

The subject of the next series is CL152. The series is described as follows: Cytotoxicity, sulforhodamine B (SRB) assay. Format: cell-based. To be noted: read-out: IC50 for prochlorperazine metabolites, CL152 parental cells. The protocol: as §1, §2
Another series deals with CL141 spheres. Description: Cytotoxicity at sphere cells, Trypan Blue Exclusion method. To be noted: read-out: IC50 for prochlorperazine metabolites. Format: cell-based.
Another series concerns CL152 spheres. The description is as above. Format: cell-based. To be noted: read-out: IC50 for prochlorperazine metabolites.
In another series the test system is NSCLC cell lines. Here is the method:
as §1, §2

For series [2], the system named is CL141. Description: Clonogenic assay. The conditions noted are these: CL141; approximately 1,000 cells seeded, 14 days. Format: cell-based. From the text: […] […] After the treatments, cells were washed with PBS, and the colonies were fixed with fix solution (methanol: acetic acid=3:1) and stained with 0.5% crystal violet in methanol. After removing the crystal violet carefully and rinse with tap water, the colonies were counted manually.

For series [3], the system named is NCI-H441 cells expressing firefly luciferase. The series is described as follows: NCI-H441 firefly luciferase tail vein tumor model, drug combination test. To be noted: cisplatin 1 mg/kg + pemetrexed 1 mg/kg. It is filed as in vivo, mice. Here is the method:
In the first drug combination test, NCI-H441 cells expressing firefly luciferase (6×10^5 cells/injection) were injected into NOD/SCID mice (4-6 week of age) via the lateral tail vein for tumor establishment. […] Tumor burden from different groups were recorded by caliper. The change in tumor size was expressed as in fold change and plotted over time. Subsequently, we performed another set of drug combination test. […] For lung adenocarcinoma, the standard drug combination is pemetrexed and cisplatin whereas are used gemcitabine and cisplatin for lung squamous carcinoma. […] CL97 cancer cells (1.5×10^6 cells per injection) were injected subcutaneously into NOD/SCID mice to establish in viva tumor model.
In the drug combination test ([…]), NCI-H441 cells expressing firefly luciferase ([…] cells/injection) were injected into NOD/SCID mice (4-6 week of age) via the lateral tail vein for tumor establishment.

Another series deals with A549 cells. The series is described as follows: Senescence, β-galactosidase (SA-β-Gal) activity. It is filed as cell-based. The conditions noted are these: A549, 24 hours; 1 μM prochlorperazine, 50 μM resveratrol as positive control. From the text:
EMT also plays a critical role in the regulation of cancer sternness. EMT is characterized by enhanced cell migration and invasion.

Regarding `Clc1ccc2c(c1)N(CCCN1CCNCC1)c1ccccc1S2` [N-desmethyl prochlorperazine], the IC50 in the series with CL141 [1] is 5 to 10 µM; in the series on CL152, roughly 10 µM; in the series with CL141 spheres it was less than 5 µM; in the series with CL152 spheres it was less than 5 µM. The “cytotoxic effect in NSCLC cell lines compared with other metabolites” value in the series on NSCLC cell lines is “better cytotoxic effect than other tested metabolites”.
In the case of `CC1(C)CCCN1CCCN1c2ccccc2Sc2ccc(Cl)cc21` [NSC 14948], in the series on CL141 [2], the “Clonogenic assay for prochlorperazine analogs” value is 5-10 μM.
Still for that read-out and setting: as for `CCc1ccc2c(c1)N(CCCN(CCCl)CCCl)c1ccccc1S2` [NSC 166184], the figure is 1-2.5 μM.
As to `CCN(CC)CCCN1c2ccccc2Sc2ccc(Cl)cc21` [NSC 169470], the “Clonogenic assay for prochlorperazine analogs” value with CL141 [2] is listed as 5-10 μM.
On the same count and under the same terms, as for `CN(C)c1ccc(-c2c3ccccc3nc3ccc(Cl)cc23)cc1` [NSC 406619], the figure is 2.5-5 μM.
With `C[N+]1([O-])CCN(CCCN2c3ccccc3[S+]([O-])c3ccc(Cl)cc32)CC1` (stereo not shown) [Prochlorperazine sulfoxide 4′-N-oxide], the IC50 is greater than 20 µM in the series with CL141 [1], greater than 20 µM in the series on CL152, greater than 10 µM in the series on CL141 spheres and greater than 10 µM in the series with CL152 spheres.
In the case of `CN1CCN(CCCN2c3ccccc3[S+]([O-])c3ccc(Cl)cc32)CC1` (stereo not shown) [Prochlorperazine sulfoxide], the concentration for half-maximal inhibition (IC50) is greater than 20 µM with CL141 [1], greater than 20 µM in the series with CL152, 5 to 10 µM in the series with CL141 spheres and greater than 10 µM in the series with CL152 spheres.
With `N.N.[Cl][Pt][Cl]` [cisplatin], the “inhibitory effect on tumor growth, cisplatin in combination with pemetrexed vs pemetrexed alone” value in series [3] is reported as “not significantly different”.
Take `Oc1ccc(C=Cc2cc(O)cc(O)c2)cc1` [resveratrol]: the “β-galactosidase activity (senescence)” value in the series on A549 cells is “increased β-galactosidase activity”.
